Molecular target: T1, full-length human PKCι (Homo sapiens, UniProt P41743)
T1 construct: Recombinant, full-length human PKCι expressed in Sf21 insect cells is also commercially available; purchased; host or cells: Sf21 insect cells
T1 sequence (P41743 1-596): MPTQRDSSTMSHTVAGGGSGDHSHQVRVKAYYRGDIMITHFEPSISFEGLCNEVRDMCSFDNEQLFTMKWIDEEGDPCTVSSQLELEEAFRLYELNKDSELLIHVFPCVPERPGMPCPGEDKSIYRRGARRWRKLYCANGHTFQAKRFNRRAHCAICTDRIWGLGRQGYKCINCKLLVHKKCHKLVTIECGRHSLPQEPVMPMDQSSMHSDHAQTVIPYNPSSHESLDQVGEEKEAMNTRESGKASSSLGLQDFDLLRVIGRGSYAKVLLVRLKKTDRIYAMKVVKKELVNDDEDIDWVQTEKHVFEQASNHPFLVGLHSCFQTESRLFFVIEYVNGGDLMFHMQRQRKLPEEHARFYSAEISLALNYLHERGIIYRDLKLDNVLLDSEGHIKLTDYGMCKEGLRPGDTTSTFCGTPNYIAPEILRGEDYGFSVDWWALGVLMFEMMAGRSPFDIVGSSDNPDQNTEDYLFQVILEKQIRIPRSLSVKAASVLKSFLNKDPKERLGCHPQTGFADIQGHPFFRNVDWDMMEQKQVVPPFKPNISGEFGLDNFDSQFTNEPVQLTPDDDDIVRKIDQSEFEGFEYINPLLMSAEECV
Assay: PKCι IC50 IMAP assay, full-length PKCι at 150 μM ATP
Assay type: biochemical
Details: read-out: IC50 in IMAP assay against full length PKCi at 150 μM ATP
Procedure, shortened: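 Full-length hPKCι (Sf21) ~15 pM; 5FAM-peptide 100 nM; ATP 150 μM (5× KM^APP); tris pH7.5/MgCl2/EGTA/DTT/Triton, 4% DMSO; 60 min RT; IMAP stop, 2 h; FP 485/530 nm; IC50 from % inhibition curves.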

Compound	IC50
c1ccc(Nc2cc(-c3nc(N4CCNCC4)c4c(C5CC5)cncc4n3)ccn2)nc1 [Example 750, [4-(5-Cyclopropyl-4-piperazin-1-yl-pyrido[3,4-d]pyrimidin-2-yl)-pyridin-2-yl]-pyridin-2-yl-amine]	< 100 nM
c1cc(-c2nc(N3CCNCC3)c3c(C4CC4)cncc3n2)c2cc(C3CCC3)[nH]c2n1 [Example 2146, 2-(2-Cyclobutyl-1H-pyrrolo[2,3-b]pyridin-4-yl)-5-cyclopropyl-4-piperazin-1-yl-pyrido[3,4-d]pyrimidine]	< 100 nM
COc1cncc2nc(-c3ccnc(Nc4ccc(Cn5ccnc5)cc4)c3)nc(N[C@@H]3CCNC3)c12 [Example 333, {2-[2-(4-Imidazol-1-ylmethyl-phenylamino)-pyridin-4-yl]-5-methoxy-pyrido[3,4-d]pyrimidin-4-yl}-(R)-pyrrolidin-3-yl-amine]	1000 to 10000 nM
Cc1cccc(Nc2cc(-c3nc(N4CCNCC4)c4c(C5CC5)cncc4n3)ccn2)c1F [Example 574, [4-(5-Cyclopropyl-4-piperazin-1-yl-pyrido[3,4-d]pyrimidin-2-yl)-pyridin-2-yl]-(2-fluoro-3-methyl-phenyl)-amine]	< 100 nM
O=C(O)Cc1ccc(Nc2cc(-c3nc(N4CCNCC4)c4c(C5CC5)cncc4n3)ccn2)cc1 [Example 709, {4-[4-(5-Cyclopropyl-4-piperazin-1-yl-pyrido[3,4-d]pyrimidin-2-yl)-pyridin-2-ylamino]-phenyl}-acetic acid]	100 to 1000 nM
c1ccc(C2(c3cc4c(-c5nc(N6CCNCC6)c6c(C7CC7)cncc6n5)ccnc4[nH]3)CC2)cc1 [Example 1240, 5-Cyclopropyl-2-[2-(1-phenyl-cyclopropyl)-1H-pyrrolo[2,3-b]pyridin-4-yl]-4-piperazin-1-yl-pyrido[3,4-d]pyrimidine]	< 100 nM
c1cc(-c2nc(N3CCNCC3)c3c(C4CC4)cncc3n2)c2cc[nH]c2n1 [Example 1209, 5-Cyclopropyl-4-piperazin-1-yl-2-(1H-pyrrolo[2,3-b]pyridin-4-yl)-pyrido[3,4-d]pyrimidine]	< 100 nM
COc1cc(Nc2cc(-c3nc(N4CCNCC4)c4c(C5CC5)cncc4n3)ccn2)ccc1C [Example 609, [4-(5-Cyclopropyl-4-piperazin-1-yl-pyrido[3,4-d]pyrimidin-2-yl)-pyridin-2-yl]-(3-methoxy-4-methyl-phenyl)-amine]	< 100 nM
CS(=O)(=O)CCN1CCN(c2nc(-c3ccnc(NC(=O)C4CC4)c3)nc3cncc(C4CC4)c23)CC1 [Example 665, Cyclopropane-carboxylic acid (4-{5-cyclopropyl-4-[4-(2-methanesulfonyl-ethyl)-piperazin-1-yl]-pyrido[3,4-d]pyrimidin-2-yl}-pyridin-2-yl)-amide]	1000 to 10000 nM
Fc1ccn2nc(Nc3cc(-c4nc(N5CCNCC5)c5c(C6CC6)cncc5n4)ccn3)nc2c1 [Example 2033, [4-(5-Cyclopropyl-4-piperazin-1-yl-pyrido[3,4-d]pyrimidin-2-yl)-pyridin-2-yl]-(7-fluoro-[1,2,4]triazolo[1,5-a]pyridin-2-yl)-amine]	< 100 nM
c1cc(-c2nc(N3CCNCC3)c3c(C4CC4)cncc3n2)cc(Nc2cnn(C3CC3)c2)n1 [Example 794, [4-(5-Cyclopropyl-4-piperazin-1-yl-pyrido[3,4-d]pyrimidin-2-yl)-pyridin-2-yl]-(1-cyclopropyl-1H-pyrazol-4-yl)-amine]	< 100 nM
COc1cncc2nc(-c3ccnc(Nc4cnn(C5CCNCC5)c4)c3)nc(N3CCNCC3)c12 [Example 414, [4-(5-Methoxy-4-piperazin-1-yl-pyrido[3,4-d]pyrimidin-2-yl)-pyridin-2-yl]-(1-piperidin-4-yl-1H-pyrazol-4-yl)-amine]	< 100 nM
CC(C)c1cncc2nc(-c3ccnc4[nH]ccc34)nc(N3CCNCC3)c12 [Example 1211, 5-Isopropyl-4-piperazin-1-yl-2-(1H-pyrrolo[2,3-b]pyridin-4-yl)-pyrido[3,4-d]pyrimidine]	< 100 nM
CC1(C)CC(Nc2nc(-c3ccnc(Nc4c(F)cccc4F)c3)nc3cncc(C4CC4)c23)CCN1 (stereo not drawn) [Example 2038, {5-Cyclopropyl-2-[2-(2,6-difluoro-phenylamino)-pyridin-4-yl]-pyrido[3,4-d]pyrimidin-4-yl}-(2,2-dimethyl-piperidin-4-yl)-amine]	< 100 nM
Cn1cnc(Nc2cc(-c3nc(N4CCNCC4)c4c(C5CC5)cncc4n3)ccn2)c1 [Example 605, [4-(5-Cyclopropyl-4-piperazin-1-yl-pyrido[3,4-d]pyrimidin-2-yl)-pyridin-2-yl]-(1-methyl-1H-imidazol-4-yl)-amine]	< 100 nM
CN1CCN(c2cccc(Nc3cc(-c4nc(N5CCC[C@H](O)C5)c5c(C6CC6)cncc5n4)ccn3)c2)CC1 [Example 737, (S)-1-(5-Cyclopropyl-2-{2-[3-(4-methyl-piperazin-1-yl)-phenylamino]-pyridin-4-yl}-pyrido[3,4-d]pyrimidin-4-yl)-piperidin-3-ol]	< 100 nM
FC(F)(F)C1CN(c2nc(-c3ccnc(Cl)c3)nc3cncc(C4CC4)c23)CCN1 (stereo not drawn) [Example 624, 2-(2-Chloro-pyridin-4-yl)-5-cyclopropyl-4-(3-trifluoromethyl-piperazin-1-yl)-pyrido[3,4-d]pyrimidine]	100 to 1000 nM
CC1(C)CC(Nc2cc(-c3nc(N4CCNCC4)c4c(C5CC5)cncc4n3)ccn2)c2ccccc21 (stereo not drawn) [Example 2177, [4-(5-Cyclopropyl-4-piperazin-1-yl-pyrido[3,4-d]pyrimidin-2-yl)-pyridin-2-yl]-(3,3-dimethyl-indan-1-yl)-amine]	< 100 nM
CC1(C)CN(c2nc(-c3ccnc(Nc4ccc(F)cc4)c3)nc3cncc(C4CC4)c23)CCN1 [Example 719]	< 100 nM
COc1cncc2nc(-c3ccnc(NC(=O)Cc4ccc(C(F)(F)F)cc4)c3)nc(N3CCNCC3)c12 [Example 391, N-[4-(5-Methoxy-4-piperazin-1-yl-pyrido[3,4-d]pyrimidin-2-yl)-pyridin-2-yl]-2-(4-trifluoromethyl-phenyl)-acetamide]	< 100 nM
CS(=O)(=O)N[C@H](CNc1nc(-c2ccncc2)nc2cnccc12)Cc1ccccc1 [Example 83, N-(1-phenyl-3-{[2-(pyridin-4-yl)pyrido[3,4-d]pyrimidin-4-yl]amino}propan-2-yl)methanesulfonamide]	10000 to 40000 nM
N[C@H]1CCC[C@H]1C(=O)Nc1cc(-c2nc(N3CCNCC3)c3c(C4CC4)cncc3n2)ccn1 [Example 561, (1R,2S)-2-Amino-cyclopentane-carboxylic acid [4-(5-cyclopropyl-4-piperazin-1-yl-pyrido[3,4-d]pyrimidin-2-yl)-pyridin-2-yl]-amide]	< 100 nM
CC(C)(C)c1cc2c(-c3nc(N4CCNCC4)c4c(C5CC5)cnc(Cl)c4n3)ccnc2[nH]1 [Example 2118, 2-(2-tert-Butyl-1H-pyrrolo[2,3-b]pyridin-4-yl)-8-chloro-5-cyclopropyl-4-piperazin-1-yl-pyrido[3,4-d]pyrimidine]	< 100 nM
c1ccc(C[C@H]2CN(c3nc(-c4ccncc4)nc4cnccc34)CCN2)cc1 [Example 16, (3S)-3-benzyl-1-[2-(pyridin-4-yl)pyrido[3,4-d]-pyrimidin-4-yl]-piperazine]	100 to 1000 nM
4-{5-(4-Cyano-pyridin-2-ylamino)-2-[2-(4-cyano-pyridin-2-ylamino)-pyridin-4-yl]-pyrido[3,4-d]pyrimidin-4-yl}-piperazine [Example 249]	< 100 nM
c1cc(Nc2cc(-c3nc(N4CCNCC4)c4c(C5CC5)cncc4n3)ccn2)cc(N2CCOCC2)c1 [Example 2023, [4-(5-Cyclopropyl-4-piperazin-1-yl-pyrido[3,4-d]pyrimidin-2-yl)-pyridin-2-yl]-(3-morpholin-4-yl-phenyl)-amine]	< 100 nM
COc1cncc2nc(-c3ccnc(Nc4ccc(N5CCOCC5)nc4)c3)nc(N[C@@H]3CCNC3)c12 [Example 330, {5-Methoxy-2-[2-(6-morpholin-4-yl-pyridin-3-ylamino)-pyridin-4-yl]-pyrido[3,4-d]pyrimidin-4-yl}-(R)-pyrrolidin-3-yl-amine]	< 100 nM
FC(F)(F)C1CN(c2nc(-c3ccnc(NC4CCCC4)c3)nc3cncc(C4CC4)c23)CCN1 (stereo not drawn) [Example 284, Cyclopentyl-{4-[5-cyclopropyl-4-(3-trifluoromethyl-piperazin-1-yl)-pyrido[3,4-d]pyrimidin-2-yl]-pyridin-2-yl}-amine]	100 to 1000 nM
COc1cccc(Nc2cc(-c3nc(N4CCNCC4)c4c(C5CC5)cncc4n3)ccn2)c1C [Example 591, [4-(5-Cyclopropyl-4-piperazin-1-yl-pyrido[3,4-d]pyrimidin-2-yl)-pyridin-2-yl]-(3-methoxy-2-methyl-phenyl)-amine]	< 100 nM
N[C@H](CNc1nc(-c2ccncc2F)nc2cnccc12)Cc1ccccc1 [Example 10, N-[(2S)-2-amino-3-phenylpropyl]-2-(3-fluoropyridin-4-yl)pyrido[3,4-d]-pyrimidin-4-amine]	100 to 1000 nM
